{"source": "PubChem BioAssay AID1259409", "about": "(Chemical Carcinogenesis Research Information System (CCRIS), 2018)", "origin": "cited, not measured here", "tested_on": "rodent chemically induced tumor inhibition, incidence and multiplicity", "assay": "CCRIS tumor inhibitor studies"}
{"molecule": "CC1=C(/C=C/C(C)=C/C=C/C(C)=C/C(=O)Nc2ccc(C(=O)O)cc2)C(C)(C)CCC1", "values": [{"measurement": "tumour outcome (control, treated, inhibition, significance)", "setting": "Carcinogen: L-AZASERINE, 115-02-6, Dose [Inhibitor]: 1 MMOL/KG DIET DAILY FOR 91 D FOLLOWED BY 0.5 MMOL/KG DIET DAILY FOR 246 D DURING A 358 D PERIOD STARTING 1 WK AFTER COM, Route [Inhibitor]: ORAL, Species: RAT, Strain/Sex: WISTAR-LEWIS/FEMALE, Target Tissue: Type of Lesion: PANCREAS: ADENOMA, Dose [Carcinogen]: 10 MG/KG BW 1/WK FOR 15 WK, Promoter: NONE USED", "result": "35%, 38%, -9%, not significant"}, {"measurement": "tumour outcome (control, treated, inhibition, significance)", "setting": "Carcinogen: L-AZASERINE, 115-02-6, Dose [Inhibitor]: 1 MMOL/KG DIET DAILY FOR 91 D FOLLOWED BY 0.5 MMOL/KG DIET DAILY FOR 246 D DURING A 358 D PERIOD STARTING 1 WK AFTER COM, Route [Inhibitor]: ORAL, Species: RAT, Strain/Sex: WISTAR-LEWIS/FEMALE, Target Tissue: Type of Lesion: PANCREAS: CARCINOMA IN SITU, Dose [Carcinogen]: 10 MG/KG BW 1/WK FOR 15 WK, Promoter: NONE USED", "result": "48%, 8%, 83%, not significant"}, {"measurement": "tumour outcome (control, treated, inhibition, significance)", "setting": "Carcinogen: L-AZASERINE, 115-02-6, Dose [Inhibitor]: 1 MMOL/KG DIET DAILY FOR 91 D FOLLOWED BY 0.5 MMOL/KG DIET DAILY FOR 246 D DURING A 358 D PERIOD STARTING 1 WK AFTER COM, Route [Inhibitor]: ORAL, Species: RAT, Strain/Sex: WISTAR-LEWIS/FEMALE, Target Tissue: Type of Lesion: PANCREAS: CARCINOMA, Dose [Carcinogen]: 10 MG/KG BW 1/WK FOR 15 WK, Promoter: NONE USED", "result": "4%, 0%, 100%, not significant"}, {"measurement": "tumour outcome (control, treated, inhibition, significance)", "setting": "Carcinogen: L-AZASERINE, 115-02-6, Dose [Inhibitor]: 1 MMOL/KG DIET DAILY FOR 91 D FOLLOWED BY 0.5 MMOL/KG DIET DAILY FOR 246 D DURING A 358 D PERIOD STARTING 1 WK AFTER COM, Route [Inhibitor]: ORAL, Species: RAT, Strain/Sex: WISTAR-LEWIS/FEMALE, Target Tissue: Type of Lesion: PANCREAS: NEOPLASM, Dose [Carcinogen]: 10 MG/KG BW 1/WK FOR 15 WK STARTING 15 WK, Promoter: NONE USED", "result": "87%, 46%, 47%, p<0.05"}, {"measurement": "tumour outcome (control, treated, inhibition, significance)", "setting": "Carcinogen: L-AZASERINE, 115-02-6, Dose [Inhibitor]: 1 MMOL/KG DIET DAILY FOR 91 D FOLLOWED BY 0.5 MMOL/KG DIET DAILY FOR 246 D DURING A 358 D PERIOD STARTING 1 WK AFTER COM, Route [Inhibitor]: ORAL, Species: RAT, Strain/Sex: WISTAR-LEWIS/MALE, Target Tissue: Type of Lesion: PANCREAS: ADENOMA, Dose [Carcinogen]: 10 MG/KG BW 1/WK FOR 15 WK, Promoter: NONE USED", "result": "29%, 16%, 45%, not significant"}, {"measurement": "tumour outcome (control, treated, inhibition, significance)", "setting": "Carcinogen: L-AZASERINE, 115-02-6, Dose [Inhibitor]: 1 MMOL/KG DIET DAILY FOR 91 D FOLLOWED BY 0.5 MMOL/KG DIET DAILY FOR 246 D DURING A 358 D PERIOD STARTING 1 WK AFTER COM, Route [Inhibitor]: ORAL, Species: RAT, Strain/Sex: WISTAR-LEWIS/MALE, Target Tissue: Type of Lesion: PANCREAS: CARCINOMA IN SITU, Dose [Carcinogen]: 10 MG/KG BW 1/WK FOR 15 WK, Promoter: NONE USED", "result": "58%, 64%, -10%, not significant"}, {"measurement": "tumour outcome (control, treated, inhibition, significance)", "setting": "Carcinogen: L-AZASERINE, 115-02-6, Dose [Inhibitor]: 1 MMOL/KG DIET DAILY FOR 91 D FOLLOWED BY 0.5 MMOL/KG DIET DAILY FOR 246 D DURING A 358 D PERIOD STARTING 1 WK AFTER COM, Route [Inhibitor]: ORAL, Species: RAT, Strain/Sex: WISTAR-LEWIS/MALE, Target Tissue: Type of Lesion: PANCREAS: CARCINOMA, Dose [Carcinogen]: 10 MG/KG BW 1/WK FOR 15 WK, Promoter: NONE USED", "result": "8%, 16%, -100%, not significant"}, {"measurement": "tumour outcome (control, treated, inhibition, significance)", "setting": "Carcinogen: L-AZASERINE, 115-02-6, Dose [Inhibitor]: 1 MMOL/KG DIET DAILY FOR 91 D FOLLOWED BY 0.5 MMOL/KG DIET DAILY FOR 246 D DURING A 358 D PERIOD STARTING 1 WK AFTER COM, Route [Inhibitor]: ORAL, Species: RAT, Strain/Sex: WISTAR-LEWIS/MALE, Target Tissue: Type of Lesion: PANCREAS: NEOPLASM, Dose [Carcinogen]: 10 MG/KG BW 1/WK FOR 15 WK, Promoter: NONE USED", "result": "95%, 96%, -1%, not significant"}]}
{"molecule": "O=C1C=CC(=O)c2c(O)cccc21", "values": [{"measurement": "tumour outcome (control, treated, inhibition, significance)", "setting": "Carcinogen: AZOXYMETHANE [25843-45-2], Dose [Inhibitor]: 200 PPM IN DIET FOR 4 WK BEGINNING 1 WK PRIOR TO FIRST CARCINOGEN DOSE (STUDY DURATION: 35 WK), Route [Inhibitor]: ORAL, Species: RAT, Strain/Sex: F344/MALE, Target Tissue: Type of Lesion: COLON: ADENOMA, Dose [Carcinogen]: 15 MG/KG BW 1X/WK FOR 3 WK (STUDY DURATION: 35 WK), Promoter: NONE", "result": "6/28 (21%), 4/30 (13%), 38%, not significant"}, {"measurement": "tumour outcome (control, treated, inhibition, significance)", "setting": "Carcinogen: AZOXYMETHANE [25843-45-2], Dose [Inhibitor]: 200 PPM IN DIET FOR 4 WK BEGINNING 1 WK PRIOR TO FIRST CARCINOGEN DOSE (STUDY DURATION: 35 WK), Route [Inhibitor]: ORAL, Species: RAT, Strain/Sex: F344/MALE, Target Tissue: Type of Lesion: COLON: CARCINOMA, Dose [Carcinogen]: 15 MG/KG BW 1X/WK FOR 3 WK (STUDY DURATION: 35 WK), Promoter: NONE", "result": "8/28 (29%), 11/30 (37%), -28%, not significant"}, {"measurement": "tumour outcome (control, treated, inhibition, significance)", "setting": "Carcinogen: AZOXYMETHANE [25843-45-2], Dose [Inhibitor]: 200 PPM IN DIET FOR 4 WK BEGINNING 1 WK PRIOR TO FIRST CARCINOGEN DOSE (STUDY DURATION: 35 WK), Route [Inhibitor]: ORAL, Species: RAT, Strain/Sex: F344/MALE, Target Tissue: Type of Lesion: SMALL INTESTINE: CARCINOMA, Dose [Carcinogen]: 15 MG/KG BW 1X/WK FOR 3 WK (STUDY DURATION: 35 WK), Promoter: NONE", "result": "7/28 (25%), 2/30 (7%), 72%, p<0.05"}]}
{"molecule": "Brc1cc2c(cc1Br)Oc1cc(Br)c(Br)cc1O2", "values": [{"measurement": "tumour outcome (control, treated, inhibition, significance)", "setting": "Carcinogen: 7,12-DIMETHYLBENZ[A]ANTHRACENE, 57-97-6, Dose [Inhibitor]: 0, 17 NMOL 2/WK APPLIED 1 HR PRIOR TO EACH PROMOTER DOSE FOR 10 WK (STUDY DURATION: 11 WK), Route [Inhibitor]: DERMAL, Species: MOUSE, Target Tissue: Type of Lesion: SKIN: TUMOR, Dose [Carcinogen]: 390 NMOL ONCE, Promoter: 12-O-TETRADECANOYLPHORBOL-13-ACETATE, 16561-29-8", "result": "100%, 0%, 100%, not calculated"}]}
{"molecule": "Nc1c(Br)cc(Br)cc1CNC1CCC(O)CC1", "note": "(configuration not stated)", "values": [{"measurement": "tumour outcome (control, treated, inhibition, significance)", "setting": "Carcinogen: N-METHYL-N'-NITRO-N-NITROSOGUANIDINE [70-25-7], Dose [Inhibitor]: 0, 25 MG/KG BW 1X/2 D FOR 26 WK BEGINNING 1 WK POST LAST CARCINOGEN DOSE (STUDY DURATION: 52 WK), Route [Inhibitor]: SUBCUTANEOUS, Species: RAT, Strain/Sex: WISTAR/MALE, Target Tissue: Type of Lesion: STOMACH: TUMOR, Dose [Carcinogen]: 25 UG/ML IN DRINKING WATER FOR 25 WK (STUDY DURATION: 52 WK), Promoter: AMMONIUM ACETATE [631-61-8], SODIUM HYPOCLORITE [7681-52-9]", "result": "17/20 (85%), 6/19 (32%), 62%, p<0.01"}]}
{"molecule": "COC1=CC(=O)[C@]2(C=C1OC)OC[C@H]1Oc3c(ccc4c3C=CC(C)(C)O4)C(=O)[C@H]12", "values": [{"measurement": "tumour outcome (control, treated, inhibition, significance)", "setting": "Carcinogen: 7,12-DIMETHYLBENZ[A]ANTHRACENE, 57-97-6, Dose [Inhibitor]: 0, 85 NMOL 2/WK BEGINNING 1 WK POST CARCINOGEN DOSE (STUDY DURATION: 20 WK), Route [Inhibitor]: DERMAL, Species: MOUSE, Strain/Sex: ICR/FEMALE, Target Tissue: Type of Lesion: SKIN: PAPILLOMA, Dose [Carcinogen]: 390 NMOL, Promoter: 12-O-TETRADECANOYLPHORBOL-13-ACETATE, 16561-29-8", "result": "100%, 20%, 80%, not calculated"}]}
{"molecule": "CC(C)[C@@H](C)/C=C/[C@@H](C)[C@H]1CC[C@H]2C3=CC=C4C[C@@H](O)CC[C@]4(C)[C@H]3CC[C@]12C", "values": [{"measurement": "tumour outcome (control, treated, inhibition, significance)", "setting": "Carcinogen: 7,12-DIMETHYLBENZ[A]ANTHRACENE, 57-97-6, Dose [Inhibitor]: 0, 2 UMOL IN 100 µL ACETONE:DIMETHYLSULFOXIDE (9:1) 2/WK FOR 18 WK APPLIED 30 MIN PRIOR TO EACH PROMOTER DOSE (STUDY DUR, Route [Inhibitor]: DERMAL, Species: MOUSE, Strain/Sex: ICR/FEMALE, Target Tissue: Type of Lesion: SKIN: PAPILLOMA, Dose [Carcinogen]: 50 UG IN 100 µL ACETONE ONCE, Promoter: 12-O-TETRADECANOYLPHORBOL-13-ACETATE, 16561-29-8", "result": "100%, 40%, 60%, not calculated"}]}
{"molecule": "C/C=C/S/C=C/C", "values": [{"measurement": "tumour outcome (control, treated, inhibition, significance)", "setting": "Carcinogen: 7,12-DIMETHYLBENZ[A]ANTHRACENE, 57-97-6, Dose [Inhibitor]: 0, 1 MG IN 0.2 ML ACETONE APPLIED 30 MIN AFTER EACH MEZEREIN DOSE (STUDY DURATION: 20 WK), Route [Inhibitor]: DERMAL, Species: MOUSE, Strain/Sex: SENCAR/FEMALE, Target Tissue: Type of Lesion: SKIN: PAPILLOMA, Dose [Carcinogen]: 0.1 UMOL IN 0.2 ML ACETONE ONCE, Promoter: TPA, 16561-29-8, MEZEREIN, 37807-41-5, Promoter: TPA, 16561-29-8, MEZEREIN, 37807-41-5", "result": "100%, 86%, 14%, p<0.005"}, {"measurement": "tumour outcome (control, treated, inhibition, significance)", "setting": "Carcinogen: 7,12-DIMETHYLBENZ[A]ANTHRACENE, 57-97-6, Dose [Inhibitor]: 0, 1 MG IN 0.2 ML ACETONE APPLIED 30 MIN AFTER EACH TPA DOSE (STUDY DURATION: 20 WK), Route [Inhibitor]: DERMAL, Species: MOUSE, Strain/Sex: SENCAR/FEMALE, Target Tissue: Type of Lesion: SKIN: PAPILLOMA, Dose [Carcinogen]: 0.1 UMOL IN 0.2 ML ACETONE ONCE, Promoter: TPA, 16561-29-8, MEZEREIN, 37807-41-5, Promoter: TPA, 16561-29-8, MEZEREIN, 37807-41-5", "result": "100%, 91%, 9%, p<0.005"}]}
